Reference: patent publication US11185593B2, “Alkylating agent for alkylating target with driver oncogene mutation” (Chiba Prefecture, priority 2013, dated 2021)

Legend:
[1] = tested on: gene sequence of the codon 12 mutation of the KRAS gene; experiment: Confirmation of alkylation of KRAS codon 12 mutation sequence, high resolution gel electrophoresis; assay type: biochemical; details: 23° C., 17 hours
Description: A 25 μM pair of two fragments (5′-[…]-3′ (SEQ ID NO: 1) and 3′-[…]-5′ (SEQ ID NO: 2)) (final volume: 50 μL) was annealed to obtain a DNA fragment. The annealed fragment was ligated to a pGEM-T easy vector manufactured by […]. Thereafter, Escherichia coli (JM109) competent cells manufactured by Promega were transformed with the obtained product, and the resulting cells were then cultured at 37° C. overnight in a plate comprising an LB medium containing 100 μg/mL ampicillin. A transformed white colony of interest was identified by colony direct PCR using a 500 nM primer set (T7: 5′-TAATACGACTCACTATAGG-3′ (SEQ ID NO: 3); and sp6: 5′-[…]-3′ (SEQ ID NO: 4)) and 10 μL of a reaction solution containing 1 U GoTaq® Green Master Mix manufactured by Promega. The following amplification cycle was applied. […]
A DNA fragment, 213 base pairs in length, the 5′-terminus of which had been labeled with Texas Red, was synthesized using the above-described plasmid and primers (sp6: 5′-ATTTAGGTGACACTATAG-3′ (SEQ ID NO: 5), and T7: 5′-[…]-3′ (SEQ ID NO: 6), with 5′-terminus labeled with Texas Red). The obtained DNA fragment, the 5′-terminus of which had been labeled with Texas Red, was purified using PCR-Clean Up Kit manufactured by Sigma, and the concentration was then determined by UV absorption. […]

K375 = experiment: Cytotoxicity test, WST-8 (cell counting kit-8), 48 hours; assay type: cell-based; details: K375, KRAS G12D Hetero, read-out: KR12 IC50
Description: (§1) Using colon cancer and pancreatic cancer cell lines, the cells were seeded in each well of a 96-well microplate, resulting in a cell density of 3000 to 5000 cells/well, and they were then cultured overnight. On the following day, the cells of each type were treated with KR12 recognizing a codon 12 mutation in concentrations of 1 nM, 10 nM, 30 nM, 100 nM, 300 nM, and 1 μM for 48 hours. Thereafter, a WST-8 reagent was added to each well, using cell counting kit-8, and the obtained mixture was then reacted for 2 hours. After that, the number of cells was counted at a wavelength of 450 nm according to a colorimetric analysis method using a microplate reader. The method of counting the number of cells comprises: 1) obtaining the mean value of the medium alone, 2) subtracting the mean value of the medium from each well, 3) obtaining the mean value of DMSO, 4) dividing the medium-subtracted value by the mean value of DMSO and then multiplying by 100, 5) obtaining the mean value of each treatment group and a standard deviation, and then preparing a graph. The calculation formula of IC50 is the following: IC50=10 (LOG (A/B)×(50−C)/(D−C)+LOG (B)), wherein A: a higher concentration of two concentrations sandwiching 50%, B: a lower concentration of two concentrations sandwiching 50%, C: inhibitory percentage at B, and D: inhibitory percentage at A.

PANC-1 = experiment: as above; assay type: cell-based; details: Homo sapiens, PANC-1, KRAS G12D Hetero, read-out: KR12 IC50
Description: as §1

KRAS gene = experiment: Semi-quantitative analysis of gene expression by RT-PCR; assay type: cell-based, human; details: LS180 (KRAS gene codon 12 mutation), 50 nM, 48 hours, FIG. 11B
Description: HT29 and LS180 were each cultured in a 12-well plate. On the following day, the cells were treated with 50 nM KR12 or KR13, and were then cultured for 48 hours. Thereafter, the cultured cells were harvested, and RNA was then extracted. For the extraction, RT-PCR was carried out using RNeasy mini kit (Qiagen, CA). Subsequently, using the extracted RNA as a template, cDNA for reverse transcription was prepared by employing Super Script VILO cDNA Synthesis Kit (Invitrogen, CA). Using the prepared cDNA as a template, PCR was carried out. After a reaction had been carried out at 94° C. for 5 minutes, a reaction cycle of 94° C.-30 seconds, 55° C.-30 seconds, and 72° C.-30 seconds was repeated 20 times. Finally, an elongation reaction was carried out at 72° C. for 7 minutes. The PCR product was subjected to electrophoresis on 2% agarose gel. The amount of the PCR product was calculated using a photograph of a band stained with ethidium bromide.
The below-mentioned primer set was used in PCR.
A forward primer (sense) and a reverse primer (antisense), which amplify both mutant and wild-type KRAS genes, and a forward primer (sense) and a reverse primer (antisense) for an RPS18 (ribosomal protein S18) gene used as an internal standard are shown below.

[2] = tested on: active-type KRAS proteins (p21-ras proteins); experiment: Measurement of RAS activity (RAS activation assay kit); assay type: cell-based, human; details: LS180, 50 nM, 48 hours, FIG. 12A
Description: Cells (the number of cells: 2×10^6 cells/100 mm plate or 1×10^6 cells/100 mm plate) were cultured in a complete nutrient medium, and on the following day, the cultured cells were treated with 50 nM KR12 or KR13, followed by culture for 48 hours. Thereafter, the resulting cells were dissolved in a magnesium lysis buffer (MLB), and a RAS activity level was then measured using a RAS activation assay kit (Millipore, MA).

CC(=O)Nc1cn(C)c(C(=O)Nc2cc(C(=O)NCCC(=O)Nc3cn(C)c(C(=O)Nc4cn(C)c(C(=O)Nc5cc(C(=O)Nc6cn(C)c(C(=O)NCCCC(=O)Nc7cc(C(=O)Nc8cn(C)c(C(=O)NCCC(=O)Nc9cc(C(=O)Nc%10cc(C(=O)Nc%11ccc%12[nH]c(C(=O)N%13CC(CCl)c%14c%13cc(O)c%13ccccc%14%13)cc%12c%11)n(C)c%10)n(C)c9)n8)n(C)c7)n6)n(C)c5)n4)n3)n(C)c2)n1 (stereo not drawn) [KR12]
alkylation of the gene sequence of the codon 12 mutation of the KRAS gene ([1]; mutated KRAS sequence of AsPC-1 cells (G12D), FIG. 7B): specifically induced concentration-dependent alkylation
alkylation of the gene sequence of the codon 12 mutation of the KRAS gene ([1]; mutated KRAS sequence of SW480 cells (G12V), FIG. 7A): specifically induced concentration-dependent alkylation
IC50 (K375): 0.078 µM
IC50 (PANC-1): 0.081 µM
expression of the KRAS gene (KRAS gene): significantly suppressed
activity of the detected KRAS protein (RAS activity level) [2]: decreased
